From US5358951A, “Angiotensin II receptor blocking 2, 3, 6 substituted quinazolinones” (American Cyanamid Company, priority 1993, dated 1994)

Test system: vasopressor response of angiotensin II
Assay: AII Challenge: antagonism of angiotensin II vasopressor response
Type: in vivo
Conditions: for inhibition in vivo at 3 mg/kg / inhibition in vivo at 5 mg/kg: Rattus norvegicus; for inhibition in vivo at 3 mg/kg: iv; for inhibition in vivo at 5 mg/kg: po
Procedure, shortened: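 Percent antagonism is based on the systolic blood pressure rise (mmHg) to i.v. angiotensin II at 0.05 and 0.1 ug/kg. Each rat's own predose response was taken as 100%. Challenges were repeated from 30 to 300 min after i.v., i.p. or oral compound in cannulated conscious male SHR, 16-20 weeks old.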

`CCCCc1nc2ccc([C@@H]3C[C@H]4c5ccccc5CCN4O3)cc2c(=O)n1Cc1ccc(-c2ccccc2-c2nnn[nH]2)cc1` (relative stereo) [Example 63, Cis-2-Butyl-6-(1,5,6,10b-tetrahydro-2H-isoxazolo[3,2-a]isoquinolin-2-yl)-3-[[2'-(1H-tetrazol5-yl)[1,1'-biphenyl]-4-yl]methyl]-4(3H)-quinazolinone] was tested, and the “Response Average Change” value (3 mg/kg I.V., AII 0.05 mcg/kg IV, 30 min post dose) was 10.5 mmHg, the “Response Average Change” value (3 mg/kg I.V., AII 0.05 mcg/kg IV, 90 min post dose) was 10 mmHg and the “Response Average Change” value (3 mg/kg I.V., AII 0.05 mcg/kg IV, 120 min post dose) was 10 mmHg. The “Response Average Change” value (3 mg/kg I.V., AII 0.05 mcg/kg IV, 180 min post dose) was 17.5 mmHg, the “Response Average Change” value (3 mg/kg I.V., AII 0.05 mcg/kg IV, 240 min post dose) was 12.5 mmHg and the “Response Average Change” value (3 mg/kg I.V., AII 0.05 mcg/kg IV, 300 min post dose) was 23.5 mmHg. For the same compound, the “Response Average Change” value (3 mg/kg I.V., AII 0.1 mcg/kg IV, 30 min post dose) was 10 mmHg, the “Response Average Change” value (3 mg/kg I.V., AII 0.1 mcg/kg IV, 60 min post dose) was 15 mmHg and the “Response Average Change” value (3 mg/kg I.V., AII 0.1 mcg/kg IV, 90 min post dose) was 17.5 mmHg. The “Response Average Change” value (3 mg/kg I.V., AII 0.1 mcg/kg IV, 120 min post dose) was 17.5 mmHg, the “Response Average Change” value (3 mg/kg I.V., AII 0.1 mcg/kg IV, 180 min post dose) was 22.5 mmHg and the “Response Average Change” value (3 mg/kg I.V., AII 0.1 mcg/kg IV, 240 min post dose) was 23 mmHg. For the same compound, the “Response Average Change” value (3 mg/kg I.V., AII 0.1 mcg/kg IV, 300 min post dose) was 25 mmHg, the “Response Average Change” value (3 mg/kg I.V., AII 0.5 mcg/kg IV, 60 min post dose) was 10 mmHg and the “Response Average Change” value (5 mg/kg P.O., AII 0.05 mcg/kg IV, 30 min post dose) was 22.5 mmHg. For the same compound, the “Response Average Change” value (5 mg/kg P.O., AII 0.05 mcg/kg IV, 60 min post dose) was 30 mmHg, the “Response Average Change” value (5 mg/kg P.O., AII 0.05 mcg/kg IV, 90 min post dose) was 20 mmHg and the “Response Average Change” value (5 mg/kg P.O., AII 0.05 mcg/kg IV, 120 min post dose) was 16.5 mmHg. The “Response Average Change” value (5 mg/kg P.O., AII 0.05 mcg/kg IV, 180 min post dose) was 20 mmHg, the “Response Average Change” value (5 mg/kg P.O., AII 0.1 mcg/kg IV, 30 min post dose) was 35 mmHg and the “Response Average Change” value (5 mg/kg P.O., AII 0.1 mcg/kg IV, 60 min post dose) was 42.5 mmHg. For the same compound, the “Response Average Change” value (5 mg/kg P.O., AII 0.1 mcg/kg IV, 90 min post dose) was 34 mmHg, the “Response Average Change” value (5 mg/kg P.O., AII 0.1 mcg/kg IV, 120 min post dose) was 32.5 mmHg and the “Response Average Change” value (5 mg/kg P.O., AII 0.1 mcg/kg IV, 180 min post dose) was 24 mmHg. For the same compound, the inhibition in vivo at 3 mg/kg (0.5 h, 3 mg/kg I.V., AII 0.05 mcg/kg IV, 30 min post dose) was 70%, the inhibition in vivo at 3 mg/kg (0.5 h, 3 mg/kg I.V., AII 0.1 mcg/kg IV, 30 min post dose) was 73% and the inhibition in vivo at 3 mg/kg (1 h, 3 mg/kg I.V., AII 0.1 mcg/kg IV, 60 min post dose) was 60%. It also gave an inhibition in vivo at 3 mg/kg (1 h, 3 mg/kg I.V., AII 0.5 mcg/kg IV, 60 min post dose) of 71%, an inhibition in vivo at 3 mg/kg (2 h, 3 mg/kg I.V., AII 0.05 mcg/kg IV, 120 min post dose) of 71% and an inhibition in vivo at 3 mg/kg (2 h, 3 mg/kg I.V., AII 0.1 mcg/kg IV, 120 min post dose) of 53%. For the same compound, the inhibition in vivo at 3 mg/kg (3 h, 3 mg/kg I.V., AII 0.05 mcg/kg IV, 180 min post dose) was 50%, the inhibition in vivo at 3 mg/kg (3 h, 3 mg/kg I.V., AII 0.1 mcg/kg IV, 180 min post dose) was 40% and the inhibition in vivo at 3 mg/kg (4 h, 3 mg/kg I.V., AII 0.05 mcg/kg IV, 240 min post dose) was 64%. It also gave an inhibition in vivo at 3 mg/kg (4 h, 3 mg/kg I.V., AII 0.1 mcg/kg IV, 240 min post dose) of 39%, an inhibition in vivo at 3 mg/kg (5 h, 3 mg/kg I.V., AII 0.05 mcg/kg IV, 300 min post dose) of 33% and an inhibition in vivo at 3 mg/kg (5 h, 3 mg/kg I.V., AII 0.1 mcg/kg IV, 300 min post dose) of 33%. For the same compound, the inhibition in vivo at 3 mg/kg ([…], 3 mg/kg I.V., AII 0.05 mcg/kg IV, 90 min post dose) was 71%, the inhibition in vivo at 3 mg/kg ([…], 3 mg/kg I.V., AII 0.1 mcg/kg IV, 90 min post dose) was 53% and the inhibition in vivo at 5 mg/kg (0.5 h, 5 mg/kg P.O., AII 0.05 mcg/kg IV, 30 min post dose) was 49%. The inhibition in vivo at 5 mg/kg (0.5 h, 5 mg/kg P.O., AII 0.1 mcg/kg IV, 30 min post dose) was 18%, the inhibition in vivo at 5 mg/kg (1 h, 5 mg/kg P.O., AII 0.05 mcg/kg IV, 60 min post dose) was 32% and the inhibition in vivo at 5 mg/kg (1 h, 5 mg/kg P.O., AII 0.1 mcg/kg IV, 60 min post dose) was 0%. For the same compound, the inhibition in vivo at 5 mg/kg (2 h, 5 mg/kg P.O., AII 0.05 mcg/kg IV, 120 min post dose) was 63%, the inhibition in vivo at 5 mg/kg (2 h, 5 mg/kg P.O., AII 0.1 mcg/kg IV, 120 min post dose) was 24% and the inhibition in vivo at 5 mg/kg (3 h, 5 mg/kg P.O., AII 0.05 mcg/kg IV, 180 min post dose) was 55%. The inhibition in vivo at 5 mg/kg (3 h, 5 mg/kg P.O., AII 0.1 mcg/kg IV, 180 min post dose) was 44%, the inhibition in vivo at 5 mg/kg ([…], 5 mg/kg P.O., AII 0.05 mcg/kg IV, 90 min post dose) was 55% and the inhibition in vivo at 5 mg/kg ([…], 5 mg/kg P.O., AII 0.1 mcg/kg IV, 90 min post dose) was 20%.
